Results published in ChEMBL document CHEMBL1133150, “N-formyl hydroxylamine containing dipeptides: generation of a new class of vasopeptidase inhibitors” (Bioorg Med Chem Lett, 2000).

Columns and labels:
Neprilysin = target: T1, Neprilysin (Rattus norvegicus, UniProt P07861); test: Inhibition of Neutral endopeptidase
T1 sequence (P07861 whole entry): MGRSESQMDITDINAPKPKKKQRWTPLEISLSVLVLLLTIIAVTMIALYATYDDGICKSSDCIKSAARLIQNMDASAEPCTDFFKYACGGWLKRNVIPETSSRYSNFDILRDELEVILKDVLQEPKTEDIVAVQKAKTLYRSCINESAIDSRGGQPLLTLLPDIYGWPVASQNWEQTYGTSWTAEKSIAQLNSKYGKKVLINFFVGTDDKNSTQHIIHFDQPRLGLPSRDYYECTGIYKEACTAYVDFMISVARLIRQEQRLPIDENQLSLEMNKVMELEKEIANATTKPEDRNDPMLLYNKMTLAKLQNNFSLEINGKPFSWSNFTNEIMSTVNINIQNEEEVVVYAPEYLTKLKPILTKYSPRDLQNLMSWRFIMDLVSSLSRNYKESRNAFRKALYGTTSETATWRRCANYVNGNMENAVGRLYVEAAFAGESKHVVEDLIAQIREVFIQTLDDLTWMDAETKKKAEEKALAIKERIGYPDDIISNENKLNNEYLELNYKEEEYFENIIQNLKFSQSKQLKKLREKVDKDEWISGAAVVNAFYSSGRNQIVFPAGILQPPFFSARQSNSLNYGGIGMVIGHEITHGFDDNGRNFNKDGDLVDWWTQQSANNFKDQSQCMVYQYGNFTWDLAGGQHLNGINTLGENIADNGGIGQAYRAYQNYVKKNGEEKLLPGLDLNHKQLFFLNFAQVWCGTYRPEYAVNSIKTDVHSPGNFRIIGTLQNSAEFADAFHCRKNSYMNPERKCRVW

[1] = target: T2, Angiotensin-converting enzyme (Oryctolagus cuniculus, UniProt P12822); test: Inhibition of Angiotensin I converting enzyme
T2 sequence (P12822 whole entry): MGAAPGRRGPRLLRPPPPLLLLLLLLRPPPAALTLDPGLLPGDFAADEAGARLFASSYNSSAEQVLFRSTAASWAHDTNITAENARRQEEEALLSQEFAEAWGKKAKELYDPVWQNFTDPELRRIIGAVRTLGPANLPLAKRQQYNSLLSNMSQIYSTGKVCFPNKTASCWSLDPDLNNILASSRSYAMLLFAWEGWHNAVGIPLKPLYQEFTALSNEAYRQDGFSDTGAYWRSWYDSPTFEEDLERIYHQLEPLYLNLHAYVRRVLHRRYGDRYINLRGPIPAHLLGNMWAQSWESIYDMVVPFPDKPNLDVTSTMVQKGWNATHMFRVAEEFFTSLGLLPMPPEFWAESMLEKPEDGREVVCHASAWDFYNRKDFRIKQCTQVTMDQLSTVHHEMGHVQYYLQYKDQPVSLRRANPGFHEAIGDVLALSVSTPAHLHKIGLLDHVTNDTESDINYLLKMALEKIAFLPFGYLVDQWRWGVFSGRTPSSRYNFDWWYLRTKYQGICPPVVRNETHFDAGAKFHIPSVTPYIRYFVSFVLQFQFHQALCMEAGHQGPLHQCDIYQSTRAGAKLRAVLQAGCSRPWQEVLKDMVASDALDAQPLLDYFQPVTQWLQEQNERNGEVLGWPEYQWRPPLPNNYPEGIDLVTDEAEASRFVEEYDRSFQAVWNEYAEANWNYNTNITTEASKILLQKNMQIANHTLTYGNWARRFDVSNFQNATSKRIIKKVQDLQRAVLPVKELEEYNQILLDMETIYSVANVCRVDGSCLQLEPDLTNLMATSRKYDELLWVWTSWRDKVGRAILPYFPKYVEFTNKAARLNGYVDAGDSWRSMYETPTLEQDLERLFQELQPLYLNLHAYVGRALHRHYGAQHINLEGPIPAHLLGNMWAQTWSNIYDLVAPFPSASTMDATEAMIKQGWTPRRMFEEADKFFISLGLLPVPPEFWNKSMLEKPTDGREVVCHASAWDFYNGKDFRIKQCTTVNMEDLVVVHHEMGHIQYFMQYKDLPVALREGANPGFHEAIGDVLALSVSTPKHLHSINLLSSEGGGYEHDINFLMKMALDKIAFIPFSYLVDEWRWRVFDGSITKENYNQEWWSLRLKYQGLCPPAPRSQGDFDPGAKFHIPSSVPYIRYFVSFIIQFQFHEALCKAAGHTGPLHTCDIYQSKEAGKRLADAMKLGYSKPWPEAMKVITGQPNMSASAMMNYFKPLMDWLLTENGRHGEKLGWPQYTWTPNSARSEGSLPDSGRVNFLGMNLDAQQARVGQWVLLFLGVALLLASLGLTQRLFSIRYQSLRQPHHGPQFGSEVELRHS

| SMILES | IC50 (Neprilysin) | IC50 [1] |
| --- | --- | --- |
| CC(C)C[C@H](NC(=O)C(Cc1ccccc1)CN(O)C(N)=O)C(=O)N[C@@H](Cc1ccccc1)C(=O)O (stereo not given in full) | 705000 nM | 529000 nM |
| CC(C)[C@H](NCP(=O)(O)O)C(=O)N[C@@H](Cc1ccc(-c2ccccc2)cc1)C(=O)O | 3 nM | 25 nM |
| O=CN(O)C[C@@H](Cc1ccccc1)C(=O)N[C@H]1CCc2ccccc2N(CC(=O)O)C1=O | 1.3 nM | 5.3 nM |
| O=CN(O)C[C@@H](Cc1ccccc1)C(=O)N[C@H]1Cc2ccccc2[C@H]2CCC[C@@H](C(=O)O)N2C1=O | 1.8 nM | 3.4 nM |
| CC(C)C[C@H](NC(=O)C(Cc1ccccc1)CN(O)C=O)C(=O)N[C@@H](Cc1ccccc1)C(=O)O (stereo not given in full) | 1270 nM | 106 nM |

Continued by falling IC50 (Neprilysin), values first:

| IC50 (Neprilysin) | IC50 [1] | SMILES |
| --- | --- | --- |
| 214000 nM | 461000 nM | CC(=O)N(O)CC(Cc1ccccc1)C(=O)N[C@@H](CC(C)C)C(=O)N[C@@H](Cc1ccccc1)C(=O)O (stereo not given in full) |
| 93000 nM | 228000 nM | CC(C)C[C@H](NC(=O)[C@H](Cc1ccccc1)N(O)C=O)C(=O)N[C@@H](Cc1ccccc1)C(=O)O |
| 20 nM | 7 nM | CS(=O)(=O)N[C@@H](CCCCN)C(=O)NC[C@H](CC1(C(=O)N[C@@H](Cc2ccc(O)cc2)C(=O)O)CCCC1)C(=O)O [SAMPATRILAT] |
| 18 nM | 5.4 nM | CC1(C)CCC[C@H](NC(=O)[C@H](Cc2ccccc2)CN(O)C=O)C(=O)N1CC(=O)O |
| 9 nM | 6 nM | O=C(N[C@H]1CCS[C@H]2CCC[C@@H](C(=O)O)N2C1=O)[C@@H](S)Cc1ccccc1 [OMAPATRILAT] |
